# According to patent US10391015B2, “Apparatus and method for restoring voluntary control of locomotion in neuromotor impairments” (ECOLE POLYTECHNIQUE FEDERALE DE LAUSANNE (EPFL), priority 2012, dated 2019):
# Tests used:
# [1] = system: left motor cortex; experiment: Inactivation of the motor cortex by muscimol microinjection in overground-trained SCI rats; type: in vivo, rat; details: overground-trained rats with T7/T10 staggered hemisections; intra-cortical microinjection into left motor cortex (800 nl, 4.5 mg/Kg); p<0.01; functionality of lumbosacral circuits uncompromised
# Protocol: (§1) To ablate T8-T9 neurons, we infused NMDA (1% in dH2O) into 14 sites (depth 1 mm, total volume 3 μl) covering spinal levels T8-T9. Rats were tested 5 days post-lesion, and sacrificed on the following day. The ablation of neurons was verified post mortem on tissue sections stained with mouse anti-NeuN (1:500, Chemicon, USA) antibodies. To inactivate the motor cortex, we injected the GABA-agonist muscimol intra-cortically (800 nl, 4.5 mg/Kg). Five days prior to experiments, we stereotaxically implanted a catheter (OD: 0.61 mm, ID: 0.28 mm) into the left motor cortex at a depth of 1.5 mm. Proper catheter location was verified post mortem on tissue sections stained (Invitrogen, USA) for fluorescent Nissl visualization.
# Contrary to primates, the rodent motor cortex is not essential to produce locomotion (G. Courtine et al., Can experiments in nonhuman primates expedite the translation of treatments for spinal cord injury in humans? Nature medicine 13, 561 (May, 2007)). […] First, we implanted stimulating epidural electrodes over the left motor cortex to verify that the reorganization of neuronal pathways re-established connectivity across the lesion. […] Second, we implanted a microwire array in the vicinity of CST neurons projecting to T8-T9 segments, and recorded neuronal modulations during voluntary locomotion in overground-trained rats (n=3). […]
# [2] = system: T8-T9 neurons; experiment: Ablation of T8-T9 neurons by NMDA infusion in overground-trained SCI rats; type: in vivo, rat; details: overground-trained rats with T7/T10 staggered hemisections, NMDA 1% in dH2O into 14 sites, tested 5 days post-lesion, p<0.01, functionality of lumbosacral circuits uncompromised
# Protocol: as §1
# Anatomical examinations highlighted an extensive remodelling of supraspinal and intraspinal projections in rats that regained voluntary locomotion. We first conducted retrograde tract tracing from L1-L2 locomotor centers. We found a significant increase (p<0.01) in the number of labeled neurons in intermediate and ventral laminae of T8-T9 segments in both overground-trained and treadmill-trained rats compared to non-trained animals. Analysis of the activity-dependent marker cfos after continuous overground locomotion confirmed that the labeled neurons were active during walking. […]
SMILES,effect on voluntary hindlimb locomotion [1],effect on regained voluntary locomotion [2]
"NCc1cc(=O)[nH]o1 [Muscimol, muscimol]",immediately suppressed voluntary hindlimb locomotion,
"CN[C@H](CC(=O)O)C(=O)O [NMDA, N-methyl-D-aspartic acid]",,abolished the regained voluntary locomotion
